Measured values taken from patent publication US4017607A.
In brackets after ≈: the same amount, converted by molar mass. Read-outs that look alike come from different tables or passages of the source.

Experiments:
[1] = test system: Staphylococcus aureus 209P; test: Minimum inhibitory concentration, serial dilution method, Brain Heart Infusion broth; type: cell-based; details: read-out: Minimum Inhibitory Concentration
[2] = test system: Bacillus subtilis ATCC 6633; test: Minimum inhibitory concentration, serial dilution method; type: cell-based; details: read-out: Minimum Inhibitory Concentration
[3] = test system: Bacillus subtilis PCI 219; test: as above; type: cell-based; details: PCI219; Bacillus subtilis PCI 219; 24 hours, 37° C; read-out: Minimum Inhibitory Concentration
[4] = test system: Streptococcus hemolyticus D-90; test: as above; type: cell-based; details: Streptococcus pyogenes, read-out: Minimum Inhibitory Concentration
Sarcina lutea = test: as above; type: cell-based; details: Micrococcus luteus; Sarcina lutea; 24 hours, 37° C; read-out: Minimum Inhibitory Concentration
[5] = test system: Diplococcus pneumoniae Type III; test: as above; type: cell-based; details: Streptococcus pneumoniae; Diplococcus pneumoniae Type III; 24 hours, 37° C; read-out: Minimum Inhibitory Concentration
[6] = test system: Streptococcus faecalis ATCC 8043; test: as above; type: cell-based; details: Enterococcus faecalis, read-out: Minimum Inhibitory Concentration
[7] = test system: Staphylococcus aureus Smith; test: as above; type: cell-based; details: read-out: Minimum Inhibitory Concentration
[8] = test system: Streptococcus hemolyticus Cook; test: as above; type: cell-based; details: Streptococcus pyogenes; Streptococcus hemolyticus Cook; 24 hours, 37° C; read-out: Minimum Inhibitory Concentration
[9] = test system: Diplococcus pneumoniae Type I; test: as above; type: cell-based; details: Streptococcus pneumoniae; Diplococcus pneumoniae Type I; 24 hours, 37° C; read-out: Minimum Inhibitory Concentration
[10] = test system: Staphylococcus aureus Terajima; test: as above; type: cell-based; details: read-out: Minimum Inhibitory Concentration
[11] = test system: Bacillus anthracis No. 119; test: microbe, parasite or virus in culture; type: cell-based; details: NO.119, 24 h, read-out: Minimum Inhibitory Concentration
[12] = test system: Staphylococcus aureus 209P; details: 7th day, 10 mice per group
[13] = test system: Corynebacterium diphtheriae Type intermedius; test: Minimum inhibitory concentration, serial dilution method; type: cell-based; details: Corynebacterium diphtheriae Type intermedius; 24 hours, 37° C; read-out: Minimum Inhibitory Concentration
[14] = test system: Corynebacterium diphtheriae Type gravis; test: as above; type: cell-based; details: Corynebacterium diphtheriae Type gravis; 24 hours, 37° C; read-out: Minimum Inhibitory Concentration
[15] = test system: Staphylococcus albus 1200A; test: as above; type: cell-based; details: read-out: Minimum Inhibitory Concentration
[16] = test system: Streptococcus pyogenes D-58; test: as above; type: cell-based; details: D58; Streptococcus pyogenes D-58; 24 hours, 37° C; read-out: Minimum Inhibitory Concentration
[17] = test system: gram-negative and gram-positive bacteria; test: Antibacterial activity (in words); type: cell-based
[18] = Staphylococcus aureus 209P, 24 hours, 37° C
[19] = ATCC6633, Bacillus subtilis ATCC 6633, 24 hours, 37° C
[20] = D90, Streptococcus hemolyticus D-90, 24 hours, 37° C
[21] = ATCC8043, Streptococcus faecalis ATCC 8043, 24 hours, 37° C
[22] = Staphylococcus aureus Smith, 24 hours, 37° C
[23] = Staphylococcus aureus Terajima, 24 hours, 37° C
[24] = Staphylococcus albus 1200A, 24 hours, 37° C
[25] = Staphylococcus aureus, 209P, 24 h
[26] = Bacillus subtilis, ATCC6633, 24 h

Structure (SMILES)	MIC [1, 18]	MIC [2, 19]	MIC [3]	MIC [4, 20]	MIC (Sarcina lutea)	MIC [5]	MIC [6, 21]	MIC [7, 22]	MIC [8]	MIC [9]	MIC [10, 23]	MIC [11]	Rate of surviving mice in each group of mice ([12]; 100 mg/kg oral)	Rate of surviving mice in each group of mice ([12]; 200 mg/kg oral)	MIC [13]	MIC [14]	MIC [15, 24]	MIC [16]	MIC [1, 25]	MIC [2, 26]	also measured
CCC(=O)OC1C=CC=CCC(C)OC(=O)CC(OC(=O)CC)C(OC)C(OC2OC(C)C(OC3CC(C)(OC(=O)CC)C(OC(C)=O)C(C)O3)C(N(C)C)C2O)C(CC=O)CC1C (stereo not shown) [Compound No. 5]	1.56 µg/mL (≈ 1.71 µM)	1.56 µg/mL (≈ 1.71 µM)	1.56 µg/mL (≈ 1.71 µM)	0.78 µg/mL (≈ 0.855 µM)	0.09 µg/mL (≈ 0.0987 µM)	0.09 µg/mL (≈ 0.0987 µM)	0.78 µg/mL (≈ 0.855 µM)	0.78 µg/mL (≈ 0.855 µM)	0.39 µg/mL (≈ 0.428 µM)	0.09 µg/mL (≈ 0.0987 µM)	3.12 µg/mL (≈ 3.42 µM)	0.78 µg/mL (≈ 0.855 µM)	4/10	8/10	0.19 µg/mL (≈ 0.208 µM)	0.19 µg/mL (≈ 0.208 µM)	1.56 µg/mL (≈ 1.71 µM)	0.19 µg/mL (≈ 0.208 µM)	–	–	–
CCC(=O)OC1CC(=O)OC(C)CC=CC=CC(OC(C)=O)C(C)CC(CC=O)C(OC2OC(C)C(OC3CC(C)(OC(=O)CC)C(OC(=O)CC(C)C)C(C)O3)C(N(C)C)C2O)C1OC (stereo not shown) [Compound No. 4]	–	–	0.78 µg/mL (≈ 0.83 µM)	0.19 µg/mL (≈ 0.202 µM)	0.09 µg/mL (≈ 0.0957 µM)	0.19 µg/mL (≈ 0.202 µM)	0.78 µg/mL (≈ 0.83 µM)	–	0.39 µg/mL (≈ 0.415 µM)	0.39 µg/mL (≈ 0.415 µM)	–	1.56 µg/mL (≈ 1.66 µM)	0/10	3/10	0.19 µg/mL (≈ 0.202 µM)	0.19 µg/mL (≈ 0.202 µM)	–	0.19 µg/mL (≈ 0.202 µM)	1.56 µg/mL (≈ 1.66 µM)	1.56 µg/mL (≈ 1.66 µM)	MIC ([7]; Staphylococcus aureus, 24 h): 1.56 µg/mL (≈ 1.66 µM); MIC ([10]; Staphylococcus aureus, 24 h): 1.56 µg/mL (≈ 1.66 µM); MIC ([15]; Staphylococcus, 1200A, 24 h): 1.56 µg/mL (≈ 1.66 µM)
CCC(=O)OC1CC(=O)OC(C)CC=CC=CC(OC(C)=O)C(C)CC(C=COC(C)=O)C(OC2OC(C)C(OC3CC(C)(OC(=O)CC)C(OC(C)=O)C(C)O3)C(N(C)C)C2OC(C)=O)C1OC (stereo not shown)	–	–	–	–	–	–	–	–	–	–	–	–	–	–	–	–	–	–	–	–	antibacterial activity [17]: substantially no antibacterial activity
CCC(=O)OC1CC(=O)OC(C)CC=CC=CC(OC(C)=O)C(C)CC(CC=O)C(OC2OC(C)C(OC3CC(C)(OC(=O)CC)C(OC(=O)C(C)C)C(C)O3)C(N(C)C)C2O)C1OC (stereo not shown) [Compound No. 3]	–	–	0.78 µg/mL (≈ 0.842 µM)	0.78 µg/mL (≈ 0.842 µM)	0.09 µg/mL (≈ 0.0972 µM)	0.09 µg/mL (≈ 0.0972 µM)	0.78 µg/mL (≈ 0.842 µM)	0.39 µg/mL (≈ 0.421 µM)	1.9 µg/mL (≈ 2.05 µM)	0.09 µg/mL (≈ 0.0972 µM)	3.12 µg/mL (≈ 3.37 µM)	1.56 µg/mL (≈ 1.68 µM)	4/10	10/10	0.19 µg/mL (≈ 0.205 µM)	0.19 µg/mL (≈ 0.205 µM)	–	0.19 µg/mL (≈ 0.205 µM)	1.56 µg/mL (≈ 1.68 µM)	1.56 µg/mL (≈ 1.68 µM)	MIC ([15]; Staphylococcus, 1200A, 24 h): 1.56 µg/mL (≈ 1.68 µM)
CCC(=O)OC1CC(=O)OC(C)CC=CC=CC(OC(C)=O)C(C)CC(CC=O)C(OC2OC(C)C(OC3CC(C)(O)C(OC(=O)CC)C(C)O3)C(N(C)C)C2O)C1OC (stereo not shown) [9-mono-acetyl SF-837 substance, reference compound]	–	–	0.78 µg/mL (≈ 0.911 µM)	–	0.09 µg/mL (≈ 0.105 µM)	0.04 µg/mL (≈ 0.0467 µM)	–	0.78 µg/mL (≈ 0.911 µM)	0.39 µg/mL (≈ 0.456 µM)	0.04 µg/mL (≈ 0.0467 µM)	–	1.56 µg/mL (≈ 1.82 µM)	5/10	8/10	0.19 µg/mL (≈ 0.222 µM)	0.19 µg/mL (≈ 0.222 µM)	0.78 µg/mL (≈ 0.911 µM)	0.39 µg/mL (≈ 0.456 µM)	1.56 µg/mL (≈ 1.82 µM)	1.56 µg/mL (≈ 1.82 µM)	MIC ([4]; D90, 24 h): 1.56 µg/mL (≈ 1.82 µM); MIC ([6]; ATCC8043, 24 h): 1.56 µg/mL (≈ 1.82 µM); MIC ([10]; Staphylococcus aureus, 24 h): 1.56 µg/mL (≈ 1.82 µM)
CCC(=O)OC1CC(=O)OC(C)CC=CC=CC(OC(C)=O)C(C)CC(CC=O)C(OC2OC(C)C(OC3CC(C)(OC(=O)CC)C(OC(C)=O)C(C)O3)C(N(C)C)C2O)C1OC (stereo not shown) [Compound No. 1]	1.56 µg/mL (≈ 1.74 µM)	1.56 µg/mL (≈ 1.74 µM)	0.78 µg/mL (≈ 0.869 µM)	0.78 µg/mL (≈ 0.869 µM)	0.09 µg/mL (≈ 0.1 µM)	0.09 µg/mL (≈ 0.1 µM)	0.78 µg/mL (≈ 0.869 µM)	0.39 µg/mL (≈ 0.434 µM)	0.19 µg/mL (≈ 0.212 µM)	0.09 µg/mL (≈ 0.1 µM)	3.12 µg/mL (≈ 3.47 µM)	0.78 µg/mL (≈ 0.869 µM)	6/10	10/10	0.19 µg/mL (≈ 0.212 µM)	0.19 µg/mL (≈ 0.212 µM)	1.56 µg/mL (≈ 1.74 µM)	0.19 µg/mL (≈ 0.212 µM)	–	–	–
